Assay results as given in patent US9550976B2, “Methods for compact aggregation of dermal cells” (THE TRUSTEES OF COLUMBIA UNIVERSITY IN THE CITY OF NEW YORK, priority 2006, dated 2017).

Assays:
[1] = system: hair follicle morphogenesis in embryonic skin cultures; assay: Mouse embryonic skin organ culture, effects of reduced HA on hair follicle morphogenesis; format: cell-based; details: for in vivo skin stage to which the cultured skin / follicles correspond: after 72 hr in culture of 14.5 dpc skin, histology and syndecan-1 pattern
Method: To study the effects of HA misexpression in the development of a HF, an embryonic skin organ culture model was utilized. To assess how representative this model was for investigating the role of HA distribution in vivo, the expression of CD44 and HA in the cultured embryonic skin was first investigated. Embryonic skin cultures were established using pre-hair follicle initiation (14.5 dpc) skin and were incubated for 72 hrs. The cultured skin hair placodes became visible after 24 hr in culture. After 72 hr, skins were removed from culture, sectioned, and the expression of both HA and CD44 were assessed (FIG. 19). The dermal condensate was negative for HA staining (red) while expressing CD44 (green). Expression of both proteins in the HF of the cultured backskin was virtually indiscernible from that of 16.5 dpc back skin in vivo (FIG. 19). The effects of HA synthesis downregulation of hair follicle morphogenesis was investigated. Embryonic skin was cultured for 72 hrs in the presence of BSA (control) or one of two HAS inhibitors, leflunomide (Lef) (50 nM) or 4-methylumbelliferone (30 mM). In the presence of BSA, CD44 was localized predominantly to the dermal condensate, while HA remained absent from the dermal condensate (FIG. 20). […] To ascertain whether this reduction was due to an actual inhibitory effect of Lef on hair follicle morphogenesis and development, cultured skin from all treatments and control groups were enzymatically split and the separated epidermis inverted to allow the visualization of the developing epidermal hair germs. […] To explore the effects of a global degradation of HA protein on hair follicle morphogenesis within the skin cultures, embryonic skin was cultured for 72 hrs in the presence of either BSA (control) or hyaluronanase (HAase) (25 units/ml). […] Following 72 hrs in culture, embryonic skin from the four treatments described above were cryo-embedded, sectioned, and stained with hematoxylin and eosin (H&E) for histological study. […] After 72 hr in culture, follicles corresponded to those found in 14.5 dpc skin in vivo, both histologically and in their syndecan-1 expression patterns (FIG. 22).

hair follicle formation = details: whole skin organ culture; as previously shown (Kashiwagi 1997); cited from earlier work
[2] = Lef 50 nM, 4-methylumbelliferone 30 mM
[3] = embryonic skin cultured 72 hrs, Lef 50 nM, 4-methylumbelliferone 30 mM, HAase 25 units/ml
[4] = embryonic skin cultured 72 hrs, Lef 50 nM, 4-methylumbelliferone 30 mM, HAase 25 units/ml, vs BSA control

Compound | in vivo skin stage to which the cultured skin / follicles correspond [1, 2] | Syndecan-1 expression (marker of the dermal condensation) ([1]; embryonic skin cultured 72 hrs, 4-methylumbelliferone 30 mM, HAase 25 units/ml) | histology (H&E) of cultured skin [1, 3] | number of visible follicles on the surface of the skin [1, 4] | size and number of epidermal hair germs on the inverted, enzymatically separated epidermis ([1]; embryonic skin cultured 72 hrs, Lef 50 nM, HAase 25 units/ml, vs BSA control) | hair follicle formation (hair follicle formation)
Cc1cc(=O)oc2cc(O)ccc12 [4-methylumbelliferone] | 16.5 dpc | normal hair follicle development | indistinguishable from the control skin | no effect on the number of visible follicles |  | 
Cc1oncc1C(=O)Nc1ccc(C(F)(F)F)cc1 [Lef, leflunomide] | 14.5 dpc |  | inhibition of follicle development | reduction in the number of visible follicle on the surface of the skin | smaller and sparser than those of the control | 
EGF: growth factor used to inhibit hair follicle formation in skin organ culture (NSYPGCPSSYDGYCLNGGVCMHIESLDSYTCNCVIGYSGDRCQTRDLRWWELR; UniProt P01132 977-1029, looked up) |  |  |  |  |  | completely inhibited
